From US20250000875A1, “ALLOPREGNANOLONE ANALOGUES FOR HIV VIREMIA AND NEUROTOXICITY PROTECTION” (priority 2021, published 2025)

What was measured:
[1] = molecular target: HIV-1 trans-activation response element; conditions: read-out: affinity; cited from earlier work
[2] = tested on: primary, mouse splenocytes; assay: mitogen-stimulated proliferation of splenocytes; assay type: cell-based; conditions: high concentrations
HIV-1BaL = assay: anti-viremic capacity: HIV-1BaL replication in primary human microglia, p24 accumulation; assay type: cell-based; conditions: for HIV-1BaL replication, accumulation of p24 HIV capsid protein: HIV-1BaL 1 ng/mL p24, over 10 days; for effect on efficacy of cART when co-administered: co-administered with cART
Experimental: […] Corp.) as described previously.
Assessment for viremia: Media, compounds 1-6, or 3α,5α-THP was assessed in a dose-response curve (0.1, 0.3, 1, 3.2, 10, 32, 100, 320, 1×10^3, 10×10^3, 100×10^3 nM) for their anti-viremic capacity (FIG. 9). To monitor infection, samples are taken every 72 h to measure p24 or proviral DNA129-130. Infection was confirmed post-hoc via immunocytochemical imaging of HIV-1 negative regulatory factor (Nef). As needed, TZM-bl and Jurkat reporter cells were also used to determine viral proliferation.
Interactions with cART: Efficacious concentrations were re-assessed in separate mock- or HIV-1BaL-infected cultures in the presence or absence of Triumeq® [Abacavir (ABC; 10 μM)/dolutegravir (DTG; 1 nM)/lamivudine (3TC; 30 μM) dosing derived from FDA-approved insert] to assess interactions with viremic control, cytotoxicity, and cytokine production.

[3] = tested on: mouse primary medium spiny neurons in mixed glial co-culture; assay: Tat and/or gp120 neurotoxicity (necrosis, propidium iodide) in neuron/mixed glia co-culture; assay type: cell-based; conditions: for baseline cell death: highest concentrations; for Tat and/or gp120-mediated necrosis / neurotoxicity: pretreatment, 0.001-10×10^3 nM, HIV-1 Tat and/or gp120 for 20 h
Experimental: The trans-diol analogue of 3α, 5α-THP, 5α-pregnan-2β,3α-diol-20-one (compound 1) was synthesized. Mixed glia (derived from 0-1 day old mouse pups) and primary medium spiny neurons (from the striatum of E17 pups) were co-cultured as previously described. Co-cultures were pretreated with a concentration-response curve (0.001-10×10^3 nM) of 3α,5α-THP or the analogue, 1, and exposed to HIV-1 Tat and/or gp120 for 20 h. Prior time-lapse experiments have identified this time-point as the earliest time at which 3α,5α-THP protection is evident. Each treatment group consisted of 3 independent observations (with 2 technical replicates each). Necrotic cells were identified via propidium iodide labeling.

[4] = rabbits or mice, cited from earlier work
[5] = women following three consecutive SC injections; cited from earlier work

Structure (SMILES): CN(C)[C@H]1C[C@@]23CC[C@@]4(O2)C(=CC[C@]2(C)C(c5ccc6ccncc6c5)=CC[C@H]24)C=C3[C@@H](O)[C@@H]1O [dCA, didehydro-cortistatin A]
- Kd [1]: 1 to 2 nM

Structure (SMILES): C[C@]12C[C@H](O)[C@H]3[C@@H](CCC4=CC(=O)CC[C@@]43C)[C@@H]1CC[C@@H]2C(=O)CO [corticosterone]
- mitogen-stimulated proliferation [2]: reduce mitogen-stimulated proliferation

Structure (SMILES): CC(=O)[C@H]1CC[C@H]2[C@@H]3CC[C@H]4C[C@H](O)[C@@H](O)C[C@]4(C)[C@H]3CC[C@]12C [compound 1, 2β,3α-dihydroxy-5α-pregnan-20-one]
- HIV-1BaL replication, accumulation of p24 HIV capsid protein (HIV-1BaL): attenuates
- effect on efficacy of cART when co-administered (HIV-1BaL): Neither AlloP nor 1 impairs the efficacy of cART
- potency in ameliorating Tat-neurotoxicity relative to 3α,5α-THP [3]: equipotent to 3α,5α-THP
- increase in cell death ([3]; at 1 nM): 8.8%
- increase in cell death ([3]; at 10 nM): 10.5%
- baseline cell death [3]: increased baseline cell death modestly
- Tat and/or gp120-mediated necrosis / neurotoxicity ([3]; listed as analogue 1): significantly attenuated necrosis at every dose assessed

Structure (SMILES): CC(=O)[C@H]1CC[C@H]2[C@@H]3CC[C@H]4C[C@H](O)CC[C@]4(C)[C@H]3CC[C@]12C [3α,5α-THP, 5α-pregnan-3α-ol-20-one]
- elimination half-life (t1/2z) ([4]; administered subcutaneously): 0.2 to 0.667 h
- elimination half-life (t1/2z) in brain ([4]; infused IV): ~4 h
- HIV-1BaL replication, accumulation of p24 HIV capsid protein (HIV-1BaL): attenuates
- effect on efficacy of cART when co-administered (HIV-1BaL): Neither AlloP nor 1 impairs the efficacy of cART
- plasma clearance [5]: ~4 h
- increase in cell death ([3]; at 10 nM): 5.7%
- baseline cell death [3]: increased baseline cell death modestly
- Tat and/or gp120-mediated necrosis / neurotoxicity [3]: significantly attenuated necrosis at every dose assessed
